Source: ChEMBL document CHEMBL1153122, “Pyrazolone based TGFbetaR1 kinase inhibitors” (Bioorg Med Chem Lett, 2010)

How the values were obtained:
[1] = Oral bioavailability in rat at 5 mg/kg; format: ADME, organism-based; conditions: in vivo
[2] = Half life in rat at 5 mg/kg, po and iv; format: ADME, organism-based; design: dose 5 mg/kg, route oral; conditions: in vivo
Mus musculus = species: Mus musculus; assay: animal or person; conditions: BALB/c, po, 1 h, read-out: INH

Cn1c(-c2ccc3nccnc3c2)c(-c2cccc(Br)c2)c(=O)n1C
bioavailability [1]: 34% | half-life [2]: 3 h | inhibition in vivo at 3 mg/kg (Mus musculus): 43%
